Assay results published in the NIST ThermoML archive (doi:10.1016/j.jct.2016.11.017).
Numbers after ± are expanded uncertainties.

Experiments:
[1] = Molar enthalpy of transition or fusion; settings: Crystal; DSC
[2] = Crystal; DTA

| Molar enthalpy of transition or fusion [1] | Normal melting temperature [2] | Compound |
| --- | --- | --- |
| 12.5 ± 0.335 kcal/mol | 201.2 ± 0.4 °C | C[C@@H]1CC[C@@]2(OC1)O[C@H]1C[C@H]3[C@@H]4CC=C5C[C@@H](O)CC[C@]5(C)[C@H]4CC[C@]3(C)[C@H]1[C@@H]2C [Diosgenin] |
| 10.2 ± 0.287 kcal/mol | 280.1 ± 0.4 °C | C[C@]12CC[C@@H]3c4ccc(O)cc4CC[C@H]3[C@@H]1C[C@@H](O)[C@@H]2O [Estriol] |
